Measured values published in patent US7998965B2, “Glutamate aggrecanase inhibitors” (Wyeth LLC, priority 2005, dated 2011).

Legend:
[1] = target: T1, recombinant human catalytic domain of MMP-14 (Homo sapiens, UniProt P50281); assay: In vitro fluorescence assay of MMP-14 activity; assay type: biochemical; conditions: Table 1; for IC50: unit inferred
T1 construct: 177 amino acids corresponding to Tyr89-Gly265 of mature human enzyme; purchased Chemicon International, Inc. CC1041

[2] = target: T2, purified recombinant human Aggrecanase-1 (rAgg1) (Homo sapiens, UniProt O75173); assay: In vitro fluorescence screen for Aggrecanase-1 inhibitors; assay type: biochemical; conditions: Table 1; for IC50: read-out: Agg1 IC50; for Ki: enzyme not given, column follows Agg1 IC50, read-out: Ki
T2 sequence (O75173 213-837): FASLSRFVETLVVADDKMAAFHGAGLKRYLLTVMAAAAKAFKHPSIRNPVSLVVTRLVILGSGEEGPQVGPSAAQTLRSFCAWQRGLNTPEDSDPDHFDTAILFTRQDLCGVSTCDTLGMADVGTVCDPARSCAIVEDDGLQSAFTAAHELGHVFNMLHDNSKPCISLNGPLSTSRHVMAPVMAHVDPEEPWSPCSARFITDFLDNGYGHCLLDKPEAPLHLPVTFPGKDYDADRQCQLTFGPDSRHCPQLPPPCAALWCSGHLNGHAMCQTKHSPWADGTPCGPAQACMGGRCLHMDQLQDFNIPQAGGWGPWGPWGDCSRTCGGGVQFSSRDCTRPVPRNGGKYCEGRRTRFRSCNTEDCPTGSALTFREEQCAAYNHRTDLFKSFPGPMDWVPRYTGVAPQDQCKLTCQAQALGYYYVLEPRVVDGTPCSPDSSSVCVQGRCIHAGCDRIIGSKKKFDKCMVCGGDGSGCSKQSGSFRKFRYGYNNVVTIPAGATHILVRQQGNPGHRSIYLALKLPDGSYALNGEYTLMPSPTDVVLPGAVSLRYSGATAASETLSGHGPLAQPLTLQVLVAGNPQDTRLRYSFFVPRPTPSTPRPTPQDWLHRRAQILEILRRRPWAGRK

[3] = target: T3, purified recombinant human Aggrecanase-2 (Ag2t-Phe628-Strep) (Homo sapiens, UniProt Q9UNA0); assay: In vitro fluorescence screen for Aggrecanase-2 inhibitors; assay type: biochemical; conditions: Table 1; read-out: Agg 2 IC50
T3 construct: the form used is denoted as Ag2t-Phe628-Strep (MW=41,737)
T3 sequence (Q9UNA0 262-628): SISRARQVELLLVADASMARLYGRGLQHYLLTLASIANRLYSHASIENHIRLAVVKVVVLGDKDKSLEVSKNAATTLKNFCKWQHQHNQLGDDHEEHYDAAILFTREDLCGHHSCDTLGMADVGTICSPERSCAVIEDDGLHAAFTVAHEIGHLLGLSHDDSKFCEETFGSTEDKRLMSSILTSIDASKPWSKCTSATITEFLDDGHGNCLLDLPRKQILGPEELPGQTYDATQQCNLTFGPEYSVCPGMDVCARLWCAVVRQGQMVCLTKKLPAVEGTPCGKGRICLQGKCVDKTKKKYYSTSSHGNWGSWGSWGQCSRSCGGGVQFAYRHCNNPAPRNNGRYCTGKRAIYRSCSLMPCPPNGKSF

MMP-1 = target: T4, MMP-1 (Homo sapiens, UniProt P03956); assay: MMP-1 of Table 1; assay type: biochemical; conditions: for MMP-1: unit not given
T4 sequence (P03956 100-469): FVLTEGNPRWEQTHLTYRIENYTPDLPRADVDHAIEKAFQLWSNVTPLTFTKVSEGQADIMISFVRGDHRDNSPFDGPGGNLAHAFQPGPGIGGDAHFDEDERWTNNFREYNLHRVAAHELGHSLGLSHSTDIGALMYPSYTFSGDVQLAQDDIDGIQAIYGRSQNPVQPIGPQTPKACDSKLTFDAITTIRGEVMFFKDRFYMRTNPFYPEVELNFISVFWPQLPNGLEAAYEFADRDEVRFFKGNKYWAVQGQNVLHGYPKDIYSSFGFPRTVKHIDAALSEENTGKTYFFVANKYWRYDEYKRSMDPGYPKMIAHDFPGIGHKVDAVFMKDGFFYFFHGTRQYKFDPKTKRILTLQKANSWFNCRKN

[4] = target: T5, recombinant human catalytic domain of MMP-13 (Homo sapiens, UniProt P45452); assay: In vitro fluorescence assay of MMP-13 activity; assay type: biochemical; conditions: Table 1; unit inferred
T5 construct: catalytic domain of MMP-13 (165 amino acids, residues 104-268, 19 kDa)

recombinant human MMP-2 = target: T6, recombinant human MMP-2 (Homo sapiens, UniProt P08253); assay: In vitro fluorescence assay of MMP-2 activity
T6 sequence (P08253 110-660): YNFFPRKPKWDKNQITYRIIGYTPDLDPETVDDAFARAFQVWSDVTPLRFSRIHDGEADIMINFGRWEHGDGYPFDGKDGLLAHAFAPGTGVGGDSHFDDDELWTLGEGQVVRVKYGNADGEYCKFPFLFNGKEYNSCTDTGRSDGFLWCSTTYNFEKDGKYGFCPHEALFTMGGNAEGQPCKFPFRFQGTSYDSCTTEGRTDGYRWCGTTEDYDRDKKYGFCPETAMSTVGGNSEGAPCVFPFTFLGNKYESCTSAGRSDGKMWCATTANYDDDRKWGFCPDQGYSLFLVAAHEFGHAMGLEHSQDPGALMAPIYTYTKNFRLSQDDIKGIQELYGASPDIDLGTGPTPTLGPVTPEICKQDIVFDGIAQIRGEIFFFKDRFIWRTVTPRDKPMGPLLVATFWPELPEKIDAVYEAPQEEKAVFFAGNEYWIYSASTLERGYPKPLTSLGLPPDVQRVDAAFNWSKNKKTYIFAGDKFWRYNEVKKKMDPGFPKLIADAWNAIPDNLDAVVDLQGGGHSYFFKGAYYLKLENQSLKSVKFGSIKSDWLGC
Procedure: A continuous assay was used in which the substrate is a synthetic peptide containing a fluorescent group (7-methoxycoumarin; Mca), which is quenched by energy transfer to a 2,4-dinitrophenyl group. […] The source of enzyme in the assay was the recombinant human MMP-2 (66 kDa; Oncogene Research Products (catalog number PF023 from Calbiochem)). The substrate used was the peptide Mca-PQGL-(3-[2,4-dinitrophenyl]-L-2,3-diaminopropionyl)-AR-OH. The assay buffer consisted of 50 mM Hepes (pH 7.4), 100 mM NaCl, 5 mM CaCl2, and 0.005% Brij-35. […] The plates were then incubated at 30° C. for 15 minutes. The enzymatic reactions were initiated by adding the substrate to a final concentration of 20 μM, and mixing 10 times with a pipette. The final DMSO concentration in the assay was 6.0%.
Plots of the inhibitor concentration vs. the percent inhibition were fit to the following equation: y=(a−d)/[^1+(x/c)^b]+d, a general sigmoidal curve with Hill slope, a to d. x is the inhibitor concentration under test. y is the percent inhibition. a is the limiting response as x approaches zero. As x increases without bound, y tends toward its limit d. c is the inflection point (IC50) for the curve. That is, y is halfway between the lower and upper asymptotes when x=c. b is the slope factor or Hill coefficient.

| SMILES | IC50 [1] [µM] | IC50 [2] [µM] | IC50 [3] [µM] | MMP-1 (MMP-1) | IC50 [4] [µM] | IC50 (recombinant human MMP-2) [µM] | Ki [2] [µM] | MMP-14 ([1]; unit not given) | IC50 (MMP-1; unit inferred) [µM] |
| --- | --- | --- | --- | --- | --- | --- | --- | --- | --- |
| O=C(O)CC[C@H](NC(=O)c1ccc(-c2ccccc2)cc1)C(=O)NCCCCCO [Example 8WWW, N^2-(biphenyl-4-ylcarbonyl)-N^1-(5-hydroxypentyl)-L-α-glutamine] | > 200 | 0.036 | 0.84 | no inh | ~200 | 7.4 | – | – | – |
| CCCCCCNC(=O)[C@H](CCC(=O)O)NC(=O)c1ccc(-c2ccccc2)cc1 [Example 8VVV, N^2-(biphenyl-4-ylcarbonyl)-N^1-hexyl-L-α-glutamine] | > 66.6 | 0.03 | 0.42 | no inh | ~50 | 5.6 | 0.038 | – | – |
| O=C(O)CC[C@H](NC(=O)c1ccc(-c2ccccc2)cc1)C(=O)NCCc1ccccc1Cl [Example 8VV, N^2-(biphenyl-4-ylcarbonyl)-N^1-[2-(2-chlorophenyl)ethyl]-L-α-glutamine] | > 66.6 | 0.1 | 1.9 | no inh | ~50 | 9.1 | – | – | – |
| CC(C)(Cc1ccc(F)cc1)NC(=O)C(CCC(=O)O)NC(=O)c1ccc(-c2ccccc2)cc1 (racemic) [Example 8GGGG, N^2-(biphenyl-4-ylcarbonyl)-N^1-[2-(4-fluorophenyl)-1,1-dimethylethyl]-α-glutamine] | – | 0.03 | 0.16 | no inh | > 50 | 18.6 | – | no inh | – |
| COc1ccc(CNC(=O)[C@H](CCC(=O)O)NC(=O)c2ccc(-c3ccccc3)cc2)c(OC)c1 [Example 8Y, N^2-(1,1′-biphenyl-4-ylcarbonyl)-N^1-(2,4-dimethoxybenzyl)-L-α-glutamine] | ~25 | 0.05 | 0.52 | no inh | ~67 | 5.53 | – | – | – |
| CC(C)(C)CNC(=O)[C@H](CCC(=O)O)NC(=O)c1ccc(-c2ccccc2)cc1 [Example 8UUU, N^2-(biphenyl-4-ylcarbonyl)-N^1-(2,2-dimethylpropyl)-L-α-glutamine] | > 200 | 0.061 | 0.66 | no inh | ~50 | 8.9 | 0.06 | – | – |
| CC(C)(Cc1ccccc1)NC(=O)[C@H](CCC(=O)O)NC(=O)c1ccc(-c2ccccc2)cc1 [Example 8PP, N^2-(biphenyl-4-ylcarbonyl)-N^1-(1,1-dimethyl-2-phenylethyl)-L-α-glutamine] | > 66.6 | < 0.03 | 0.085 | – | ~50 | 6 | 0.01 | – | > 200 |
| CCCNC(=O)[C@H](CCC(=O)O)NC(=O)c1ccc(-c2ccccc2)cc1 [Example 8YYY, N^2-(biphenyl-4-ylcarbonyl)-N^1-propyl-L-α-glutamine] | > 200 | 0.1 | 1.6 | no inh | > 50 | 9.4 | – | – | – |
| O=C(O)CC[C@H](NC(=O)c1ccc(-c2ccccc2)cc1)C(=O)NCc1ccc(Oc2ccccc2)cc1 [Example 8W, N^2-(1,1′-biphenyl-4-ylcarbonyl)-N^1-(4-phenoxybenzyl)-L-α-glutamine] | ~25 | 0.075 | 0.971 | no inh | ~22 | ~2.5 | – | – | – |
